The source of these data is patent US12649751B2 (Arcus Biosciences, Inc., priority 2022, dated 2026).

Read-outs that look alike come from different tables or passages of the source. Where only a bound is given, the exact number is not on record here.

Experiment [1] has as its system p-SLP-76 (Ser376) in Jurkat cells. Description: pSLP76 Cellular Assay (AlphaLISA SureFire Ultra p-SLP-76 (Ser376), anti-CD3 activated Jurkat cells). In kind it is cell-based. As to conditions: Homo sapiens, read-out: Cellular Potency. As to the method: pSLP76 cellular assay was performed using Jurkat cells and the AlphaLISA SureFire Ultra p-SLP-76 (Ser376) Assay Kit (PerkinElmer). Dose-response assays were performed in Greiner® Low Volume 384-well assay plates containing 200 nL of 22 serial 2-fold compound dilutions using Bravo and Echo. Jurkat cells were grown in RPMI-1640 supplemented with 10% FBS and PSG. The day prior to the assay, the cells were collected, and serum starved overnight in Opti-MEM. The day of the assay, the cells were collected and resuspended in HBSS. 100,000 cells/well were added to the compound plates and after a short spin, the plates were incubated at 37° C. for 1 h. The cells were activated by adding 10 μL of 0.025 mg/ml anti-CD3. Plates were then incubated at 37° C. for 45 min. Stimulation was terminated by adding […], followed by a brief centrifugation and 60 min of shaking at 300 rpm. Cell lysates (10 μL) were transferred to 384-well White Opti-plates and the samples were processed according to the manufacturer's directions. The fluorescence signal from pSLP76 was measured at 570 nm using Envision plate reader. IC50 values were determined by fitting the data to a standard 4-parameter logistic equation. The results are summarized in the Cellular Potency columns in Tables 4 and 5 below (Cellular Potency).

Experiment [2] concerns the target HPK1 (Homo sapiens, UniProt Q92918). Description: HPK1 Biochemical Assay (ADP-Glo luminescence; low ATP 10 μM or high ATP 200 μM).
The mark [3] stands for this setting: pSLP76 (Ser376) AlphaLISA, anti-CD3 activated Jurkat cells.
[4] abbreviates: HPK1 ADP-Glo assay, high ATP (200 μM ATP, 5 nM HPK1), read-out: Biochemical Potency (high ATP).
The mark [5] stands for this setting: Jurkat cells, anti-CD3 stimulation, pSLP76.
[6] abbreviates: 2 nM HPK1, 10 μM ATP, read-out: Biochemical Potency (low ATP).
Setting [7] is: HPK1 ADP-Glo assay, low ATP (10 μM ATP, 2 nM HPK1), read-out: Biochemical Potency (low ATP).

Sequence of HPK1 (Q92918 whole entry, species assumed): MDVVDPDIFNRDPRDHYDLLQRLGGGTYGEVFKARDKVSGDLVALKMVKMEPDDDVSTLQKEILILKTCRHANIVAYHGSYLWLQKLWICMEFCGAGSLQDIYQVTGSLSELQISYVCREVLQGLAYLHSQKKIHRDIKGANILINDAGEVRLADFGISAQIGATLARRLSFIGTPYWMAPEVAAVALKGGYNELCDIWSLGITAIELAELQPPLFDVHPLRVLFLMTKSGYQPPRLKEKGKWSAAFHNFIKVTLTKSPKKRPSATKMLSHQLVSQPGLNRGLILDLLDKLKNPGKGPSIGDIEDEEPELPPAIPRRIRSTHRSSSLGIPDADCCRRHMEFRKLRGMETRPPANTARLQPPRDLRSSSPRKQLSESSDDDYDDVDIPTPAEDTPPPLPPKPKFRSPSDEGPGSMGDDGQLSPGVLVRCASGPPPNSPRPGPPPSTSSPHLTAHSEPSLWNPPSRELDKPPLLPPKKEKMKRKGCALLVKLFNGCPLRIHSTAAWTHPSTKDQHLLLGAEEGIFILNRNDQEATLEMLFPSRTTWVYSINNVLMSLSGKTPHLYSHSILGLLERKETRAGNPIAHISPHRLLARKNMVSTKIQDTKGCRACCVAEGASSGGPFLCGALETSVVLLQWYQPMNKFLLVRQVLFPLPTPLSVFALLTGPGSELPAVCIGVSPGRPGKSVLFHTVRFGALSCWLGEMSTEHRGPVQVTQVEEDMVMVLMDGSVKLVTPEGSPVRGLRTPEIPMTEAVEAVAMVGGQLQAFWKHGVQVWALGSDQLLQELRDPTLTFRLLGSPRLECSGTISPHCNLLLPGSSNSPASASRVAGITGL

As to `Cc1cccnc1-c1nc2cc(Nc3cc(C4CCC(O)CC4)nc(N4C[C@@H]5C[C@H]4CN5)n3)ncc2s1` (stereo partly drawn) [Example 302, 4-{2-[(1S,4S)-2,5-diazabicyclo[2.2.1]heptan-2-yl]-6-{[2-(3-methylpyridin-2-yl)-[1,3]thiazolo[5,4-c]pyridin-6-yl]amino}pyrimidin-4-yl}cyclohexan-1-ol], the IC50 in experiment [1] (setting [3]) and in experiment [2] (setting [4]) was less than 100 nM throughout.

In the case of `Cc1cc(Nc2cc3nc(-c4cnn(CC(F)F)c4)sc3cn2)nc(N2C[C@@H]3C[C@H]2CN3C)n1` [Example 375], the IC50 in experiment [1] (setting [3]) was 100 to 1000 nM; in experiment [2] (setting [4]), less than 100 nM.

For `Cc1cc(Nc2cc3nc(-c4cccc5c4C(C)(C)C(=O)N5)sc3cn2)nc(N2C[C@@H]3C[C@H]2CN3CCO)n1` [Example 350], the IC50 in experiment [1] (setting [3]) and in experiment [2] (setting [4]) was less than 100 nM throughout.

In the case of `Cc1cc(Nc2cc3nc(-c4cncc(-c5ncc(F)cc5C)c4)sc3cn2)nc(N2C[C@@H]3C[C@H]2CN3C)n1` [Example 584], the IC50 in experiment [1] (setting [3]) was 100 to 1000 nM; in experiment [2] (setting [4]), less than 100 nM.

On to `CN1C[C@@H]2C[C@H]1CN2c1nccc(Nc2cc3nc(-c4ccncc4)sc3cn2)n1` [Example 159, 2-[(1S,4S)-5-Methyl-2,5-diazabicyclo[2.2.1]heptan-2-yl]-N-[2-(pyridin-4-yl)-[1,3]thiazolo[5,4-c]pyridin-6-yl]pyrimidin-4-amine], for which the IC50 in experiment [1] (setting [5]) was 100 to 1000 nM; in experiment [2] (setting [6]) it was less than 100 nM.

As for `COCCn1cc(-c2nc3cc(Nc4cc(C)nc(N5C[C@@H]6C[C@H]5CN6C)n4)ncc3s2)cn1` [Example 376], the IC50 in experiment [1] (setting [3]) was 100 to 1000 nM; in experiment [2] (setting [4]), less than 100 nM.

With `Cc1cc(Nc2cc3nc(-c4cccc(C(=O)N(C)C)c4)sc3cn2)nc(N2C[C@@H]3C[C@H]2CN3Cc2ccccc2)n1` [Example 496], the IC50 in experiment [1] (setting [3]) and in experiment [2] (setting [4]) was less than 100 nM throughout.

In the case of `Cc1cccnc1-c1nc2cc(Nc3ccc4c(n3)CNCC4)ncc2s1` [Example 300, N-[2-(3-methylpyridin-2-yl)-[1,3]thiazolo[5,4-c]pyridin-6-yl]-5,6,7,8-tetrahydro-1,7-naphthyridin-2-amine], the IC50 in experiment [1] (setting [3]) was 1000 to 5000 nM; in experiment [2] (setting [7]), less than 100 nM.

For `Cc1cc(-c2nc3cc(Nc4cccc(N5C[C@@H]6C[C@H]5CN6C)n4)ncc3s2)ccn1` [Example 96, 6-[(1S,4S)-5-Methyl-2,5-diazabicyclo[2.2.1]heptan-2-yl]-N-[2-(2-methylpyridin-4-yl)-[1,3]thiazolo[5,4-c]pyridin-6-yl]pyridin-2-amine], the IC50 in experiment [1] (setting [5]) was 100 to 1000 nM; in experiment [2] (setting [6]) it was less than 100 nM; in experiment [2] (5 nM HPK1, 200 μM ATP, read-out: Biochemical Potency (high ATP)) it was less than 100 nM.

Consider `Cc1c(N)cncc1-c1nc2cc(Nc3ccc4c(c3)CCC(N3CCCC3)CC4)ncc2s1` (centres unmarked) [Example 330], for which the IC50 in experiment [1] (setting [3]) was 5000 to 25000 nM; in experiment [2] (setting [7]), less than 100 nM.

On to `CC(=O)N(C)c1cccc(-c2nc3cc(Nc4cc(C)nc(N5C[C@@H]6C[C@H]5CN6C)n4)ncc3s2)c1` [Example 396], for which the IC50 was 100 to 1000 nM in experiment [1] (setting [3]) and less than 100 nM in experiment [2] (setting [4]).

For the molecule `CN1C[C@@H]2C[C@H]1CN2c1cccc(Nc2cc3nc(-c4ncccc4C(F)(F)F)sc3cn2)n1` [Example 92, 6-[(1S,4S)-5-Methyl-2,5-diazabicyclo[2.2.1]heptan-2-yl]-N-{2-[3-(trifluoromethyl)pyridin-2-yl]-[1,3]thiazolo[5,4-c]pyridin-6-yl}pyridin-2-amine], the IC50 in experiment [1] (setting [5]) is 100 to 1000 nM; in experiment [2] (setting [6]) it was less than 100 nM.

In the case of `Cc1cc(Nc2cc3nc(-c4cccc(C(=O)NC5CCCC5)c4)sc3cn2)nc(N2C[C@@H]3C[C@H]2CN3CCO)n1` [Example 545], the IC50 in experiment [1] (setting [3]) and in experiment [2] (setting [4]) was less than 100 nM in each case.

Consider `CC(C)c1ccc(Nc2cc3nc(-c4cnn(C)c4)sc3cn2)nc1CN1CCCC1` [Example 227, N-[2-(1-Methyl-1H-pyrazol-4-yl)-[1,3]thiazolo[5,4-c]pyridin-6-yl]-5-(propan-2-yl)-6-[(pyrrolidin-1-yl)methyl]pyridin-2-amine], for which the IC50 is 100 to 1000 nM in experiment [1] (setting [5]) and less than 100 nM in experiment [2] (setting [6]).

As for `Cc1cccnc1-c1nc2cc(Nc3cccc(N4CCNC5CC54)n3)ncc2s1` (centres unmarked) [Example 87, 6-{2,5-Diazabicyclo[4.1.0]heptan-2-yl}-N-[2-(3-methylpyridin-2-yl)-[1,3]thiazolo[5,4-c]pyridin-6-yl]pyridin-2-amine], the IC50 in experiment [1] (setting [5]) was 1000 to 5000 nM; in experiment [2] (setting [6]), less than 100 nM.

With `Cc1cc(-c2nc3cc(Nc4cc(C)nc(N5C[C@@H]6C[C@H]5CN6CCO)n4)ncc3s2)cc(C2CC2)n1` [Example 537], the IC50 in experiment [1] (setting [3]) is 100 to 1000 nM; in experiment [2] (setting [4]) it was less than 100 nM.

Consider `Cc1cc(Nc2cc3nc(-c4ncco4)sc3cn2)nc(N2C[C@@H]3C[C@H]2CN3C)n1` [Example 388], for which the results for the IC50 in experiment [1] (setting [3]) and in experiment [2] (setting [4]) were 100 to 1000 nM and less than 100 nM, respectively.

`Cc1cc(Nc2cc3nc(-c4cnn(CCO)c4)sc3cn2)nc(N2C[C@@H]3C[C@H]2CN3C)n1` [Example 381]: the IC50 is 100 to 1000 nM in experiment [1] (setting [3]) and less than 100 nM in experiment [2] (setting [4]).

Take `CC(C)(O)c1cc(-c2nc3cc(Nc4ccnc(N5C[C@@H]6C[C@H]5CN6)n4)ncc3s2)ccn1` [Example 120, 2-{4-[6-({2-[(1S,4S)-2,5-Diazabicyclo[2.2.1]heptan-2-yl]pyrimidin-4-yl}amino)-[1,3]thiazolo[5,4-c]pyridin-2-yl]pyridin-2-yl}propan-2-ol]: the IC50 in experiment [1] (setting [5]) was 100 to 1000 nM; in experiment [2] (setting [6]), less than 100 nM.

As for `Cc1ccnn1-c1nc2cc(Nc3ccc(C4CCOCC4)c(CN[C@H]4CCOC4)n3)ncc2s1` [Example 209, N-[2-(5-Methyl-1H-pyrazol-1-yl)-[1,3]thiazolo[5,4-c]pyridin-6-yl]-5-(oxan-4-yl)-6-({[(3S)-oxolan-3-yl]amino}methyl)pyridin-2-amine], the figures for the IC50 in experiment [1] (setting [5]) and in experiment [2] (setting [6]) were 1000 to 5000 nM and less than 100 nM, respectively.

Regarding `CC(C)n1cc(-c2nc3cc(Nc4ccc(N5CCOCC5)c(CN5CCCC5)n4)ncc3s2)cn1` [Example 23, 5-(Morpholin-4-yl)-N-{2-[1-(propan-2-yl)-1H-pyrazol-4-yl]-[1,3]thiazolo[5,4-c]pyridin-6-yl}-6-[(pyrrolidin-1-yl)methyl]pyridin-2-amine], the values for the IC50 in experiment [1] (setting [5]) and in experiment [2] (setting [6]) were more than 5000 nM and less than 100 nM, respectively.

Consider `c1cnn(-c2nc3cc(Nc4cnc(C5CCOCC5)c(N5C[C@@H]6C[C@H]5CN6)n4)ncc3s2)c1` [Example 508], for which the IC50 in experiment [1] (setting [3]) and in experiment [2] (setting [4]) was less than 100 nM each time.

For the molecule `CN(C)Cc1cc(N2CCOCC2)cc(Nc2cc3nc(-c4c(F)cccc4F)sc3cn2)n1` [Example 275, N-[2-(2,6-Difluorophenyl)-[1,3]thiazolo[5,4-c]pyridin-6-yl]-6-[(dimethylamino)methyl]-4-(morpholin-4-yl)pyridin-2-amine], the values for the IC50 in experiment [1] (setting [5]) and in experiment [2] (setting [6]) were more than 5000 nM and less than 100 nM, respectively.

In the case of `Cc1cc(Nc2cc3nc(-c4c(F)cccc4F)sc3cn2)nc(O[C@H]2CCNC2)c1` [Example 175, N-[2-(2,6-Difluorophenyl)-[1,3]thiazolo[5,4-c]pyridin-6-yl]-4-methyl-6-[(3S)-pyrrolidin-3-yloxy]pyridin-2-amine], the IC50 in experiment [1] (setting [5]) was 100 to 1000 nM; in experiment [2] (setting [6]), less than 100 nM.

Turning to `Cc1ccc(Nc2cc3nc(-c4cnn(CCC(N)=O)c4)sc3cn2)nc1CN1CCCC1` [Example 37, 3-{4-[6-({5-Methyl-6-[(pyrrolidin-1-yl)methyl]pyridin-2-yl}amino)-[1,3]thiazolo[5,4-c]pyridin-2-yl]-1H-pyrazol-1-yl}propanamide], the IC50 was 100 to 1000 nM in experiment [1] (setting [5]) and less than 100 nM in experiment [2] (setting [6]).

For `CN1C[C@@H]2C[C@H]1CN2c1nccc(Nc2cc3nc(-c4cccc(NS(C)(=O)=O)c4)sc3cn2)n1` [Example 413], the IC50 in experiment [1] (setting [3]) is 1000 to 5000 nM; in experiment [2] (setting [4]) it was less than 100 nM; in experiment [2] (setting [7]), less than 100 nM.

As for `CCN1C[C@@H]2C[C@H]1CN2c1nc(C)cc(Nc2cc3nc(-c4cccc(C(=O)N5CCCC5(C)C)c4)sc3cn2)n1` [Example 520], the IC50 in experiment [1] (setting [3]) and in experiment [2] (setting [4]) was less than 100 nM each time.

Take `CCN1C[C@@H]2C[C@H]1CN2c1nc(C)cc(Nc2cc3nc(O[C@H](C)c4c(Cl)ccc(F)c4Cl)sc3cn2)n1` [Example 485]: the IC50 was 100 to 1000 nM in experiment [1] (setting [3]) and less than 100 nM in experiment [2] (setting [4]).

As to `CN(C)Cc1nc(Nc2cc3nc(-c4c(F)cccc4Cl)sc3cn2)ccc1N1CCOCC1` [Example 20, N-[2-(2-Chloro-6-fluorophenyl)-[1,3]thiazolo[5,4-c]pyridin-6-yl]-6-[(dimethylamino)methyl]-5-(morpholin-4-yl)pyridin-2-amine], the IC50 in experiment [1] (setting [5]) is 100 to 1000 nM; in experiment [2] (setting [6]), less than 100 nM.

Take `CCC(O)(CC)c1cc(-c2nc3cc(Nc4cc(C)nc(N5C[C@@H]6C[C@H]5CN6C)n4)ncc3s2)ccn1` [Example 387]: the IC50 in experiment [1] (setting [3]) is 100 to 1000 nM; in experiment [2] (setting [4]), less than 100 nM.
